This is an account of results in US20250368617A1, “NOVEL RAS INHIBITORS” (KHR BIOTEC GMBH, priority 2022, published 2025).

One assay has as its system KRAS dependent cells. In words: MTT assay for cell viability in 96 well cell culture plate (FIG. 4). Format: cell-based. The settings on record: 48 h treatment; incl. G12C/Y96D mutation; DMSO set as 1. The method, then: (§1) Metabolic activity was quantified using Cell Proliferation Kit I (Roche, Basel, Switzerland). Cells were seeded in 96-well cell culture plates, using 5000 cells per well for NCI-H358 cells. After treatment, 10 μl of MTT solution was added and incubated for 2 h in CO2 incubator. Then 100 μl of solubilization buffer was added to each well and incubated overnight in CO2 incubator. Cell viability, assessed by the amount of metabolized MTT, was quantified by measuring absorbance at 570 nm.
FIG. 4: MTT assay for cell viability in 96 well cell culture plate Cells were treated with GSK2126458 for 48 h and cell viability was evaluated by MTT assay. […]. DMSO-treated cells were set as 1. The results shown are mean±SEM from 3 independent experiments.
For orientation: Tetrazolium assays rely on reduction of a dye to a coloured formazan, in cell work by metabolically active cells.

The next assay deals with NCI-H358 cells. Put plainly: Soft agar colony formation assay with MTT staining. Type of assay: cell-based. The settings on record: Homo sapiens, growth in soft agar, absorbance at 570 nm. On the procedure: as §1
(§2) MTT assay for the growth of different tumor cell lines with RAS mutations in soft agar with GSK2126458. Shown are data from three independent experiments.
(§3) NCI-H358, H358, H2122, ASPC-1, HCT-116, T24 and HT1080 cells were used for the soft […] agar colony formation assay. After the treatment with GSK2126458, the colonies were stained with MTT and the value was quantified by measuring absorbance at 570 nm after solubilization. The results represent mean±SD from 3 independent experiments.

The test system of another assay is ASPC1 cells. Put plainly: Soft agar colony formation assay with MTT staining. Format: cell-based. Conditions: Homo sapiens, growth in soft agar, absorbance at 570 nm. The method, then: as §1, §2, §3
The subject of another assay is NCI-H2122 cells. In words: Soft agar colony formation assay with MTT staining. The settings on record: Homo sapiens, growth in soft agar, absorbance at 570 nm. Format: cell-based. On the procedure: as §1, §2, §3
The next assay deals with HT1080 cells. Put plainly: Soft agar colony formation assay with MTT staining. Conditions: Homo sapiens, HT-1080, growth in soft agar, absorbance at 570 nm. Format: cell-based. The method, then:
as §1, §2, §3

In the next assay the test system is T24 cells. Put plainly: Soft agar colony formation assay with MTT staining. Format: cell-based. Conditions: Homo sapiens, T-24, growth in soft agar, absorbance at 570 nm. On the procedure:
as §1, §2, §3

The next assay concerns HCT-116 cells. Put plainly: Soft agar colony formation assay with MTT staining. Format: cell-based. Conditions: Homo sapiens, growth in soft agar, absorbance at 570 nm. On the procedure:
as §1, §2, §3

The test system of the next assay is sNF96.2. Put plainly: RASOpathie-Model; MTT assay for cell viability in 96 well cell culture plate (FIG. 5). The settings on record: 48 h treatment. Type of assay: cell-based. On the procedure: as §1
FIG. 5: RASOpathie-Model of GSK2126458; MTT assay for cell viability in 96 well cell culture plate
Cells were treated with GSK2126458 for 48 h and cell viability was evaluated by MTT assay. DMSO-treated cells were set as 1. The results shown are mean±SEM from 3 independent experiments.

The subject of assay [1] is p110a, p110β, p110γ, p110σ, and the mTOR1 and mTOR2 complexes and DNA-PK. The settings on record: ATP-competitive, reversible; cited from earlier work.
Another assay addresses T1, NRAS G12V (Homo sapiens, UniProt P01111, G12V).
T1 construct: K, N and HRAS G12V (full length) was cloned with Xho I and BgI II to LgBit; expressed in transfected cells
Put plainly: NanoBit assay for RAS activation (LgBiT-NRAS G12V / SmBiT-CRAF RAS binding domain). Format: cell-based. The settings on record: NRAS G12V with CRAF RBD (1-149); 2 h with inhibitor in serum free DMEM; DMSO set as 1. The method, then:
(§4) FIGS. 1a) and 1b): NanoBit assay for RAS activation (KRAS G12V, NRAS G12V, HRAS G12V) N-terminal LgBiT and C-terminal SmBiT construct was purchased from Promega and K, N and HRAS G12V (full length) was cloned with Xho I and BgI II to LgBit and CRAF RAS binding domain (1-149) was cloned with EcoRI and BgI II to SmBit. For transfections, 1 μg or 2 μg of (12 well/6 well) plasmids were transfected into cells with 0.5 mM of PEI reagent in 100 μl or 200 μl PBS. One day after transfection, cells were harvested and seeded into 96 well white plates, half area (Greiner). After an additional day the medium was changed to serum free DMEM and the cells were incubated for 2 h with inhibitors. NanoGlo assay was performed according to the manufacturer's instructions. The luminescence was measured using Tecan infinite (Tecan). DMSO-treated cells were set as 1. The results shown are mean mean±SEM from at least 3 independent experiments.

Assay [2] concerns LgBit-KRAS mutants (G12V, G12C, G12D, G12C/Y96D, G13C, G13D, G13S, Q61K and Q61R). In words: NanoBit assay for inhibition of RAS activation, KRAS mutants in HeLa cells. Format: cell-based. Conditions: LgBit-KRAS mutants and SmBit-CRAF-RBD, 2 h in serum-free DMEM. The method, then:
FIG. 3: NanoBit assay for inhibition of RAS activation (G12V, G12C, G12D, G12C/Y96D, G13C, G13D, G13S, Q61K and Q61R)
NanoBiT assay for the RAS GTP-loading was performed in HeLa cells transfected with LgBit-KRAS mutants and SmBit-CRAF-RBD. Cells were treated with GSK2126458 according to the invention for 2 h in serum-free DMEM. After incubation, the substrate for NanoLuc was added, and the luminescence was measured in a multiplate reader. Data were normalized to cells transfected with the indicated mutant and exposed to DMSO for 2 h. DMSO-treated cells were set as 1. The bars represent mean±SEM from 3 independent experiments.

The target in the next assay is T2, HRAS G12V (Homo sapiens, UniProt P01112, G12V).
T2 construct: K, N and HRAS G12V (full length) was cloned with Xho I and BgI II to LgBit; expressed in transfected cells
T2 sequence (P01112 1-186 G12V limits assumed): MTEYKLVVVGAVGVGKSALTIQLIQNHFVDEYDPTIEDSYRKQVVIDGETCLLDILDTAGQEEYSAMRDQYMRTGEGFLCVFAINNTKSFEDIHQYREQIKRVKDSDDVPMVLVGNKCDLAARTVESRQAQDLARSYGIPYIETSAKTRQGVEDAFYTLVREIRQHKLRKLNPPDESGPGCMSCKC
Put plainly: NanoBit assay for RAS activation (LgBiT-HRAS G12V / SmBiT-CRAF RAS binding domain). Format: cell-based. The settings on record: HRAS G12V with CRAF RBD (1-149); 2 h with inhibitor in serum free DMEM; DMSO set as 1. On the procedure: as §4

A further assay deals with T3, KRAS G12V (Homo sapiens, UniProt P01116, G12V).
T3 construct: K, N and HRAS G12V (full length) was cloned with Xho I and BgI II to LgBit; expressed in transfected cells
T3 sequence (P01116 1-186 isoform P01116-2 G12V limits assumed): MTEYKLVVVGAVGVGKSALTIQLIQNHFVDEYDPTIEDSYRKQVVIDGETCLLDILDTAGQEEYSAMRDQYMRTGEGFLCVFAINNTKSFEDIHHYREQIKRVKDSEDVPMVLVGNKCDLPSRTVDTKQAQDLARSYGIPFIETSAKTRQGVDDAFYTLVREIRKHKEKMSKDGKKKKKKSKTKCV
Put plainly: NanoBit assay for RAS activation (LgBiT-KRAS G12V / SmBiT-CRAF RAS binding domain). Format: cell-based. Conditions: KRAS G12V with CRAF RBD (1-149); 2 h with inhibitor in serum free DMEM; DMSO set as 1. On the procedure:
as §4

T1 sequence (P01111 1-186 G12V limits assumed): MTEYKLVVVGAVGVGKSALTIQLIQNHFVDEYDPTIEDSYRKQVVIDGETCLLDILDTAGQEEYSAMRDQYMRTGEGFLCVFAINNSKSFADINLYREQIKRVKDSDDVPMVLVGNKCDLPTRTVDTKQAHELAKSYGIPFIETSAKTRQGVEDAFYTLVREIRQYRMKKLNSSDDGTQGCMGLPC

The IC50 is the concentration at which inhibition is half-maximal. Low values mean greater potency, high ones weaker potency. Regarding `COc1ncc(-c2ccc3nccc(-c4ccnnc4)c3c2)cc1NS(=O)(=O)c1ccc(F)cc1F` [GSK2126458, 2,4-Difluoro-N-[2-methoxy-5-[4-(4-pyridazinyl)-6-quinolinyl]-3-pyridinyl]benzenesulfonamide], the “cell viability (MTT)” value with KRAS dependent cells is “inhibits KRAS dependent cells irrespective of the presence of mutation”. Further, the IC50 in the assay with NCI-H358 cells is 11.5 µM; with ASPC1 cells, 10.8 µM; with NCI-H2122 cells, 4.51 µM; in the assay on HT1080 cells, 86.9 µM; with T24 cells, 228 µM; in the assay on HCT-116 cells, 47.4 µM. The compound further came in with an IC50 in the assay with sNF96.2 of 3.8 µM. Moreover, the “activity against PI3K isoforms, mTOR complexes and DNA-PK” value in assay [1] is “subnanomolar activity”. Also, at NRAS G12V, the “inhibition of N-RAS activation (NanoBit luminescence)” value was “inhibits”. The “inhibition of RAS activation (RAS GTP-loading, NanoBiT)” value in [2] was “inhibits different RAS-isoforms”. At HRAS G12V, the “inhibition of H-RAS activation (NanoBit luminescence)” value is listed as “inhibits”. The “inhibition of K-RAS activation (NanoBit luminescence)” value on KRAS G12V is on record as “inhibits”.
